According to patent US20240327459A1, “PEPTIDE FRAGMENTS FOR TREATMENT OF DIABETES” (Follicum AB, priority 2018, published 2024):
“Also recorded” adds a separate entry of the source.

Key:
[1] = system: human pancreatic β-cell line 1.2B4; experiment: Insulin secretion from 1.2B4 human β-cells; format: cell-based; conditions: 100 nM peptide, 16.7 mM glucose, 60 minutes
Method: In order to test the effect of FOL-014 and FOL-056 in human cells, the human pancreatic β-cell line 1.2B4 were cultured at 37° C. and 5% CO2 in RPMI 1640 supplemented with 10% fetal bovine serum, 50 IU/mL penicillin, 50 mg/L streptomycin, 1 mM L-glutamine. 1.2B4 cells were seeded in 24-well plates in RPMI medium and following overnight incubation, the medium was removed before pre-incubation for 40 min at 37° C. in Krebs-Ringer bicarbonate buffer, pH 7.4, supplemented with 10 mM HEPES, 0.1% bovine serum albumin and 1.0 mM glucose. Following pre-incubation, the buffer was exchanged with fresh Krebs-Ringer buffer as described above and supplemented with specific glucose concentrations, 1 mM or 16.7 mM. FOL-014, FOL-056 or Liraglutide was added at a concentration of 100 nM in the presence of 16.7 mM glucose. Immediately after 60 minutes incubation at 37° C., an aliquot of the buffer was removed and frozen for subsequent insulin ELISA assay. (FIG. 18)

[2] = system: db/db mice; experiment: HbA1c in db/db mice after 4 weeks of dosing; format: in vivo, mouse; conditions: 100 nmol/kg subcutaneously, 5 days per week for 4 weeks, vs PBS control
Method: To investigate the long-term effect of FOL-014 and FOL-056 in diabetic mice, db/db mice were dosed with 100 nmol/kg peptide subcutaneously, 5 days per week for 4 weeks. Control mice were injected with PBS. After 4 weeks of treatment the mice were terminated and 25 μl whole blood was immediately frozen for subsequent HbA1c analysis. (FIG. 21).

[3] = system: INS-1E cells; experiment: Insulin secretion from INS-1E cells (Example 18); format: cell-based, rat; conditions: 100 nM peptide, high (16.7 mM) glucose buffer, 60 min, vs un-supplemented buffer
Method: To investigate the stimulatory effect of FOL-056 on insulin secretion we used INS-1E cells. The cells were seeded overnight and washed with PBS before pre-incubation for 60 min at 37° C. in Krebs-Ringer bicarbonate buffer (KRB), pH 7.4, supplemented with 10 mM HEPES, 0.1% bovine serum albumin. Following pre-incubation, the buffer was discarded and the INS-1E cells were incubated in fresh KRB buffer supplemented with 10 mM HEPES, 0.1% bovine serum albumin with or without peptide FOL-056. For comparative purposes cells treated with FOL-014 was included. Following 60 min incubation at 37.C, the buffer was removed and frozen for subsequent insulin assay.

[4] = system: human islets; experiment: Insulin secretion from human pancreatic islets; format: cell-based; conditions: 1 nM peptide, 16.7 mM glucose, 60 minutes, two donors
Method: To investigate the functionality of FOL-056 in human primary tissue, the pancreatic islets from two non-diabetic human donors were used. Islets were picked, aliquoted in groups of 12 and incubated at 37° C. in 1 ml Krebs-Ringer bicarbonate buffer, pH 7.4, supplemented with 10 mM HEPES, 0.1% bovine serum albumin and 1.0 mM glucose. Following pre-incubation, the buffer was exchanged with fresh Krebs-Ringer buffer as described above and supplemented with specific glucose concentrations (1 mM or 16.7 mM), FOL-056 peptides (1 nM) or Liraglutide (100 nM). Immediately after 60 minutes incubation at 37° C., an aliquot of the buffer was removed and frozen for subsequent insulin ELISA assay. (FIG. 19)

[5] = system: INS-1E cells; experiment: Insulin secreting capacity after 72 hours of glucotoxic conditions (Examples 19, 22); format: cell-based, rat; conditions: Example 19, 20 mM glucose 72 hours with peptide, then 16.7 mM glucose 1 h
Method: To investigate the β-cell protective effect of FOL-056, we subjected INS-1E to cytotoxic levels of glucose for 72 hours. Rat INS-1E cells were seeded in 96-well plates (2×10^3 cells/well) in cRPMI medium. Following 72 hours of incubation, the medium was changed to RPMI containing 20 mM glucose with or without FOL-056 or FOL-014 and were cultured at 37° C. during an additional 72 hours to induce glucotoxicity. RPMI containing 5 mM glucose was included as a low glucose control. Following 72 hours, the medium was removed and the INS-1E cells were equilibrated in Krebs-Ringer bicarbonate buffer (KREB), pH 7.4, (supplemented with 10 mM HEPES, 0.1% bovine serum albumin and 2.8 mM glucose) for 2 hours. After equilibration, the buffer was changed and the INS-1E cells were incubated in KREBs containing 16.7 mM glucose […] during 1 h. Immediately after incubation, an aliquot of the buffer was removed and frozen for subsequent assay of insulin content.
To investigate the β-cell protective effect of several novel peptide fragments derived from FOL-005 and FOL-014, INS-1 cells were subjected to cytotoxic levels of glucose for 72 hours. […] In order to correct for the variance between experiments, all values were normalized to, and expressed as percentage of the average value of the high glucose control in the individual experiments. […]

[6] = system: diet induced obese c57BI6 mice; experiment: Acute insulin response in diet induced obese mice after long term dosing; format: in vivo, mouse; conditions: 300 nmol/kg subcutaneously 5 days per week, 12 weeks high fat diet; 1 minute after 1 g/kg iv glucose; P=0.01
Method: Materials and methods: To investigate the effects of FOL-056 in vivo in a high fat diet model, wild type c57BI6 mice were subcutaneously dosed 5 days per week with 300 nmol/kg FOL-056, while being fed high fat diet for 12 weeks. Control animals were dosed with PBS.
In diet induced obese c57BI6 mice, untreated or dosed with FOL-056, the fasting plasma insulin levels were measured before as well as 1 minute after an intravenous glucose injection of 1 g/kg. The insulin value measured before the glucose injection was subtracted from the value measured after the injection for each individual mouse in order to obtain the acute insulin response (AIR). (FIG. 20)

For “AEIDSIELSYGIK (MISC_FEATURE - peptide) [FOL-056]”, the insulin secretion [1] was “increase the insulin secretion capacity in 1.2B4 human β-cells; also recorded: significantly increased the insulin secretion as compared with cells treated with an un-supplemented high glucose buffer”, the HbA1c [2] was “reduce the HbA1c in db/db mice as compared with the untreated control group; also recorded: significantly lower HbA1c” and the insulin secretion [3] was “secrete significantly more insulin compared to unstimulated control cells; also recorded: significantly increased the insulin secretion as compared with cells treated with an un-supplemented high glucose buffer”. For the same sequence, the insulin secretion [4] was “potentiates the capacity of primary human pancreatic islets to secrete insulin as a response to high glucose levels; also recorded: significantly increased the insulin secretion as compared with cells treated with an un-supplemented high glucose buffer”, the “insulin secreting ability after glucotoxic conditions” value [5] was “preserves β-cell function as shown by retained glucose induced insulin secretion; also recorded: abolished the glucotoxic effects and retained insulin release at the same level as from β-cells in the low (5 mM) glucose treatment group” and the “acute insulin response (AIR)” value [6] was “significantly improved; also recorded: significantly higher”.
